Assay results published in the supplement of paper PMC5908809.

How the values were obtained:
[1] = test system: normal NK cells expanded with K562-aAPC; test: drug sensitivity score (DSS) (DSS units); higher = more sensitive; extreme values may be limits of the assay; conditions: 72 h; IL-2 2.5 ng/mL
Procedure: (§1)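 Drug sensitivity and resistance testing on K562-aAPC-expanded normal NK cells: 5 concentrations (10-fold steps over a 10,000-fold range), 72 h at 37 °C, viability by CellTiter-Glo normalised to DMSO and benzethonium chloride controls; DSS from the fitted curve.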

[2] = test system: normal NK cells expanded with K562-aAPC; test: percent inhibition of viability; higher = more inhibition; conditions: 72 h, IL-2 2.5 ng/mL
Procedure: as §1

[3] = test system: NK-YS (IL-2 2.5 ng/mL); test: drug sensitivity score (DSS) (DSS units); higher = more sensitive; extreme values may be limits of the assay; conditions: 72 h
[4] = test system: normal primary NK cells, pool 2 (3 donors) (IL-2 2.5 ng/mL); test: as above; conditions: 72 h
[5] = test system: normal primary NK cells, pool 1 (3 donors) (IL-2 2.5 ng/mL); test: as above; conditions: 72 h
[6] = test system: SNK-6 (IL-2 2.5 ng/mL); test: as above; conditions: 72 h
[7] = test system: KHYG-1 (IL-2 2.5 ng/mL); test: as above; conditions: 72 h
[8] = test system: DERL-7 (IL-2 2.5 ng/mL); test: as above; conditions: 72 h
[9] = test system: normal primary NK cells, pool 3 (3 donors) (IL-2 2.5 ng/mL); test: as above; conditions: 72 h
[10] = test system: NKL (IL-2 2.5 ng/mL); test: as above; conditions: 72 h
[11] = test system: normal primary NK cells, pool 1 (3 donors), resting (IL-2 0 ng/mL); test: as above; conditions: 72 h
[12] = test system: KAI3 (IL-2 2.5 ng/mL); test: as above; conditions: 72 h
[13] = test system: YT (IL-2 2.5 ng/mL); test: as above; conditions: 72 h
[14] = test system: NK-92 (IL-2 2.5 ng/mL); test: as above; conditions: 72 h
[15] = test system: IMC-1 (IL-2 20 ng/mL); test: as above; conditions: 72 h
[16] = test system: NK-YS (IL-2 2.5 ng/mL); test: percent inhibition of viability; higher = more inhibition; conditions: 72 h
[17] = test system: normal primary NK cells, pool 2 (3 donors) (IL-2 2.5 ng/mL); test: as above; conditions: 72 h
[18] = test system: normal primary NK cells, pool 1 (3 donors) (IL-2 2.5 ng/mL); test: as above; conditions: 72 h
[19] = test system: SNK-6 (IL-2 2.5 ng/mL); test: as above; conditions: 72 h
[20] = test system: KHYG-1 (IL-2 2.5 ng/mL); test: as above; conditions: 72 h
[21] = test system: DERL-7 (IL-2 2.5 ng/mL); test: as above; conditions: 72 h
[22] = test system: normal primary NK cells, pool 3 (3 donors) (IL-2 2.5 ng/mL); test: as above; conditions: 72 h
[23] = test system: NKL (IL-2 2.5 ng/mL); test: as above; conditions: 72 h
[24] = test system: normal primary NK cells, pool 1 (3 donors), resting (IL-2 0 ng/mL); test: as above; conditions: 72 h
[25] = test system: KAI3 (IL-2 2.5 ng/mL); test: as above; conditions: 72 h
[26] = test system: YT (IL-2 2.5 ng/mL); test: as above; conditions: 72 h
[27] = test system: NK-92 (IL-2 2.5 ng/mL); test: as above; conditions: 72 h
[28] = test system: IMC-1 (IL-2 20 ng/mL); test: as above; conditions: 72 h

CC(C)(O)CC(=O)NCCn1ccc2ncnc(Nc3ccc(Oc4cccc(C(F)(F)F)c4)c(Cl)c3)c21 [TAK-285] (max concentration tested 2500 nM)
Conditions	drug sensitivity score
[1]	0.89
[3]	0
[4]	0.89
[5]	0
[6]	0
[7]	0
[8]	0
[9]	0.89
[10]	0.89
[11]	0.01
[12]	0
[13]	0
[14]	0.37
[15]	0.89

percent inhibition of viability [%]
Conditions	0.25 nM	2.5 nM	25 nM	250 nM	2500 nM
[2]	-3.9	-5.59	-4.49	-4.65	-10.5
[16]	-1.3	-5.16	-2.82	0.41	-0.02
[17]	-6.38	-6.44	-5.09	-7.05	-6.29
[18]	-5.45	-7.93	-3.5	-0.56	2.32
[19]	5.49	3.7	-2.84	-9.96	-12.5
[20]	-0.17	-1.01	-1.95	2.13	-6.23
[21]	0.57	-0.5	-0.21	-6.99	3.24
[22]	-5.51	-2.63	-4.05	-8.03	-14.8
[23]	-13.2	-11.7	-12.7	-16.1	-29.3
[24]	-19.2	-12	10	5.74	6.13
[25]	3.24	6.26	-7.58	2.41	-4.47
[26]	0.86	-3.2	0.37	1.42	-3.68
[27]	3.91	-1.52	-0.33	10.9	11.6
[28]	-2.98	-2.02	-5.78	-4.36	-2.28

C#Cc1cccc(Nc2ncnc3cc(OC)c(OCCCCCCC(=O)NO)cc23)c1 [CUDC-101] (max concentration tested 10000 nM)
Conditions	drug sensitivity score
[1]	14.3
[3]	12.4
[4]	16.7
[5]	17.9
[6]	17.6
[7]	22.6
[8]	21.1
[9]	15.3
[10]	16.5
[11]	18.1
[12]	17.9
[13]	18.8
[14]	18.1
[15]	11.6

percent inhibition of viability [%]
Conditions	1 nM	10 nM	100 nM	1000 nM	10000 nM
[2]	-2.26	1.39	1.83	75.4	101
[16]	-4.37	0.36	0.68	57.3	105
[17]	-9.31	-5.49	9.37	84.5	97
[18]	-3.28	-4.06	12.8	88.8	98.8
[19]	11.7	10.8	24.7	78.1	100
[20]	1.82	3.01	36.4	99.1	106
[21]	-3.07	-2.96	19.3	100	101
[22]	-12	1.9	2.2	82.8	99.5
[23]	-15.6	-12.1	1.83	90.5	108
[24]	10.4	0.86	30.2	78.6	92.4
[25]	-3.15	0.88	27.8	77.2	105
[26]	0.23	0.94	9.37	95.4	106
[27]	9.73	-1.07	19.2	85.7	105
[28]	-4.07	-5.13	-1.06	48.9	101

O=C(Nc1ccc(OC(F)(F)F)cc1)c1sccc1NCc1ccnc2ccccc12 [OSI-930] (max concentration tested 2500 nM)
Conditions	drug sensitivity score
[1]	0
[3]	0
[4]	0
[5]	0
[6]	8.62
[7]	0
[8]	0.66
[9]	0
[10]	0
[11]	0.24
[12]	0
[13]	0
[14]	1.27
[15]	0.67

percent inhibition of viability [%]
Conditions	0.25 nM	2.5 nM	25 nM	250 nM	2500 nM
[2]	0.01	-3.72	-1.42	0.82	7.54
[16]	-1.68	-3.28	-0.75	3.05	10.1
[17]	-8.8	-7.72	0	7.78	8.04
[18]	-1.64	6.46	-0.65	1.58	5.43
[19]	2.35	8.65	27.3	16.9	25.4
[20]	0.6	1.74	3.75	5.69	7.1
[21]	-3.26	4.29	2.35	12.1	10.2
[22]	-8.79	-12.1	-5.29	4.46	8.54
[23]	-6.01	-14.6	-5.82	-10.2	7.79
[24]	-4.47	-4.58	-9.07	4.32	12.1
[25]	3.63	-6.37	-2.54	-7.75	4.42
[26]	-0.61	-3.29	0.94	1	10.3
[27]	3.89	-3.38	-8.56	11.8	16.6
[28]	0.84	-1.87	4.98	6.89	18.2
